Measurements published in ChEMBL document CHEMBL5230109, “Recent advances in epigenetic proteolysis targeting chimeras (Epi-PROTACs)” (Eur J Med Chem, 2020).

Assays:
[1] = target: von Hippel-Lindau disease tumor suppressor/Polycomb protein SUZ12 (Homo sapiens, UniProt P40337+Q15022); assay: PROTAC activity at PRC2 catalytic core SUZ12/VHL in human DLBCL cells measured after 24 hrs by Western blot analysis; type: cell-based
[2] = target: von Hippel-Lindau disease tumor suppressor/Histone-lysine N-methyltransferase EZH2 (Homo sapiens, UniProt P40337+Q15910, Y641N); assay: PROTAC activity at PRC2 catalytic core EZH2/EZH2 Y641N mutant/VHL (unknown origin) measured after 24 hrs by Western blot analysis
[3] = target: von Hippel-Lindau disease tumor suppressor/Polycomb protein EED (Homo sapiens, UniProt O75530+P40337); assay: PROTAC activity at PRC2 catalytic core EED/VHL (unknown origin) measured after 24 hrs by Western blot analysis; type: protein assay
Polycomb protein EED [4] = target: T1, Polycomb protein EED (Homo sapiens, UniProt O75530); assay: Inhibition of PRC2 catalytic core EED (unknown origin)
[5] = target: Histone-lysine N-methyltransferase EZH1 (Homo sapiens, UniProt Q92800); assay: Inhibition of EZH1 methyltransferase activity (unknown origin) assessed `transfer of [3H]methyl group from SAM to substrate by biochemical assay
[6] = target: T2, Bromodomain-containing protein 4 (Homo sapiens, UniProt O60885); assay: Binding affinity to BRD4 BD1 domain (unknown origin)
[7] = target: T3, Bromodomain-containing protein 2 (Homo sapiens, UniProt P25440); assay: Binding affinity to BRD2 BD1 domain (unknown origin)
[8] = target: T3, Bromodomain-containing protein 2; assay: Binding affinity to BRD2 BD2 domain (unknown origin)
[9] = target: T2, Bromodomain-containing protein 4; assay: Binding affinity to BRD4 BD2 domain (unknown origin)
[10] = target: T4, Bromodomain-containing protein 3 (Homo sapiens, UniProt Q15059); assay: Binding affinity to BRD3 BD2 domain (unknown origin)
[11] = target: T4, Bromodomain-containing protein 3; assay: Binding affinity to BRD3 BD1 domain (unknown origin)
[12] = target: SWI/SNF-related matrix-associated actin-dependent regulator of chromatin subfamily A member 4 (Homo sapiens, UniProt P51532); assay: Inhibition of SMARCA4 BD (unknown origin)
[13] = target: SWI/SNF-related matrix-associated actin-dependent regulator of chromatin subfamily A member 2 (Homo sapiens, UniProt P51531); assay: Inhibition of SMARCA2 BD (unknown origin)
[14] = target: T5, Protein polybromo-1/von Hippel-Lindau disease tumor suppressor (Homo sapiens, UniProt P40337+Q86U86); assay: PROTAC activity at PBRM1/VHL in human MV4-11 cells assessed as degradation protein measured after 18 hrs; type: cell-based
[15] = target: T5, Protein polybromo-1/von Hippel-Lindau disease tumor suppressor; assay: PROTAC activity at PBRM1/VHL in human NCI-H1568 cells assessed as degradation protein measured after 18 hrs; type: cell-based
[16] = target: T6, von Hippel-Lindau disease tumor suppressor/SWI/SNF-related matrix-associated actin-dependent regulator of chromatin subfamily A member 2 (Homo sapiens, UniProt P40337+P51531); assay: PROTAC activity at SMARCA2/VHL in human MV4-11 cells assessed as degradation protein measured after 18 hrs; type: cell-based
[17] = target: T6, von Hippel-Lindau disease tumor suppressor/SWI/SNF-related matrix-associated actin-dependent regulator of chromatin subfamily A member 2; assay: PROTAC activity at SMARCA2/VHL in human NCI-H1568 cells assessed as degradation protein measured after 18 hrs; type: cell-based
SK-MEL-5 = assay: Antiproliferative activity against human SK-MEL-5 cells measured after 7 days; type: functional, cell-based; conditions: SK-MEL-5, 168 h
MV4-11 = assay: Antiproliferative activity against human MV4-11 cells measured after 7 days; type: functional, cell-based; conditions: MV4-11, 168 h
[18] = Antiproliferative activity against human NCI-H1568 cells measured after 7 days; type: functional, cell-based; conditions: NCI-H1568, 168 h
[19] = Inhibition of […] BD5 (unknown origin); set-up: species or system Homo sapiens
[20] = target: von Hippel-Lindau disease tumor suppressor/SWI/SNF-related matrix-associated actin-dependent regulator of chromatin subfamily A member 4 (Homo sapiens, UniProt P40337+P51532); assay: PROTAC activity at SMARCA4/VHL in human MV4-11 cells assessed as degradation protein measured after 18 hrs; type: cell-based
KARPAS-422 = assay: Antiproliferative activity against human KARPAS-422 cells assessed as growth inhibition after 14 days by Cell Titer-Glo luminescent assay; type: functional; conditions: KARPAS-422, 336 h, time 14 day
[21] = Inhibition of PRC2 catalytic core MTase activity (unknown origin) by MTase Glo assay; set-up: species or system Homo sapiens
Polycomb protein EED [22] = target: T1, Polycomb protein EED; assay: Binding affinity to PRC2 catalytic core EED (unknown origin) by surface plasmon resonance assay
[23] = target: von Hippel-Lindau disease tumor suppressor/Bromodomain-containing protein 2 (Homo sapiens, UniProt P25440+P40337); assay: PROTAC activity at BRD2/VHL in human 22Rv1 cells assessed as protein degradation measured after 16 hrs; type: cell-based
[24] = target: Polyamine deacetylase HDAC10 (Homo sapiens, UniProt Q969S8); assay: Inhibition of human recombinant His-tagged HDAC10 incubated for 20 mins by HDAC Glo assay
Histone deacetylase 1 = Histone deacetylase 1 (Homo sapiens, UniProt Q13547); assay: Inhibition of human recombinant GST-tagged HDAC1 incubated for 20 mins by HDAC Glo assay
Histone deacetylase 2 = Histone deacetylase 2 (Homo sapiens, UniProt Q92769); assay: Inhibition of human recombinant GST-tagged HDAC2 incubated for 20 mins by HDAC Glo assay
[25] = target: Protein deacetylase HDAC6 (Homo sapiens, UniProt Q9UBN7); assay: Inhibition of human recombinant GST-tagged HDAC6 incubated for 20 mins by HDAC Glo assay
Histone deacetylase 3 = Histone deacetylase 3 (Homo sapiens, UniProt O15379); assay: Inhibition of human recombinant HDAC3 incubated for 20 mins by HDAC Glo assay
Histone deacetylase 8 = Histone deacetylase 8 (Homo sapiens, UniProt Q9BY41); assay: Inhibition of human recombinant His-tagged HDAC8 incubated for 20 mins by HDAC Glo assay
MM1.S = assay: Growth inhibition of human MM1.S cells; type: functional
[26] = target: T7, Protein cereblon/Protein deacetylase HDAC6 (Homo sapiens, UniProt Q96SW2+Q9UBN7); assay: PROTAC activity at HDAC6/CRBN in human MM.1S cells; type: cell-based, MM1.S
[27] = target: T7, Protein cereblon/Protein deacetylase HDAC6; assay: PROTAC activity at HDAC6/CRBN in human MM.1S cells measured after 24 hrs; type: cell-based, MM1.S
[28] = target: T8, von Hippel-Lindau disease tumor suppressor/Transcription intermediary factor 1-alpha (Homo sapiens, UniProt O15164+P40337); assay: PROTAC activity at TRIM24/VHL (unknown origin) assessed as degradation protein; type: protein assay
[29] = target: Histone-lysine N-methyltransferase EZH2 (Homo sapiens, UniProt Q15910); assay: Inhibition of EZH2 methyltransferase activity (unknown origin) assessed `transfer of [3H]methyl group from SAM to substrate by biochemical assay
[30] = target: T8, von Hippel-Lindau disease tumor suppressor/Transcription intermediary factor 1-alpha; assay: PROTAC activity at TRIM24/VHL in human MOLM-13 cells assessed as degradation protein at 5 uM measured after 24 hrs; type: cell-based
[31] = target: T8, von Hippel-Lindau disease tumor suppressor/Transcription intermediary factor 1-alpha; assay: PROTAC activity at TRIM24/VHL in human HEK293FT cells assessed as degradation protein at 5 uM measured after 24 hrs; type: cell-based

T3 sequence (P25440 whole entry, the tested form may be a part): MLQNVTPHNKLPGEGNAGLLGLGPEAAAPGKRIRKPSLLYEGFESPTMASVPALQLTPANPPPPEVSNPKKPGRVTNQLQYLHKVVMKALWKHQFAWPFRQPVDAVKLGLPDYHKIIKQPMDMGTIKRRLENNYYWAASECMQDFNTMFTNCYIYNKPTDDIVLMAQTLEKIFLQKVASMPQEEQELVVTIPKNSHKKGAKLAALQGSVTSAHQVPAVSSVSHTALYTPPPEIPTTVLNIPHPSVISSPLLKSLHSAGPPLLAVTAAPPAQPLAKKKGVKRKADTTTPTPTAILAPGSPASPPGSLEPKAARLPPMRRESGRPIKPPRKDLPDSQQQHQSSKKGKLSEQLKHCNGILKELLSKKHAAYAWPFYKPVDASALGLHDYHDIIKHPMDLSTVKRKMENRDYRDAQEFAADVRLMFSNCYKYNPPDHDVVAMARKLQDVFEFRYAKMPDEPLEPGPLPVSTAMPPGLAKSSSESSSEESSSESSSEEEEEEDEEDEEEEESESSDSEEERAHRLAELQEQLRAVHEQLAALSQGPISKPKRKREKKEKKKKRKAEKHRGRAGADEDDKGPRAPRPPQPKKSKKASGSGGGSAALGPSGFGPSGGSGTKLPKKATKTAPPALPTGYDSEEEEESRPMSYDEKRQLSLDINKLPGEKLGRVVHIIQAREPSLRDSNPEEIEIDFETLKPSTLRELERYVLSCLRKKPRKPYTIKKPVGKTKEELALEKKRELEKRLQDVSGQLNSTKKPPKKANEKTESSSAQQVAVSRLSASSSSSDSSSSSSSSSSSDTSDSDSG
T1 sequence (O75530 whole entry): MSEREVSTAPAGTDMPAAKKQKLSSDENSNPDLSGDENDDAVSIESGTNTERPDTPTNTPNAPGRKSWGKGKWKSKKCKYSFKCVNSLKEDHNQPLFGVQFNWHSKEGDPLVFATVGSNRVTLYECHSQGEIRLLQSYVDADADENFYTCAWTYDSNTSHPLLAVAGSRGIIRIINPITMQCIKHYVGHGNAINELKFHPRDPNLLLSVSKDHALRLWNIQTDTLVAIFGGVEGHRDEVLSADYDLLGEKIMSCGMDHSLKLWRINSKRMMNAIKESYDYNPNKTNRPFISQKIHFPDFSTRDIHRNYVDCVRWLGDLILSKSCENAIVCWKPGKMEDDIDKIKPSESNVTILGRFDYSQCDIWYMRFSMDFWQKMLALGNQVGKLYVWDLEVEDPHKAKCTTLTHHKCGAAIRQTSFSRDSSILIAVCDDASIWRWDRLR
T7 sequence (Q9UBN7 whole entry): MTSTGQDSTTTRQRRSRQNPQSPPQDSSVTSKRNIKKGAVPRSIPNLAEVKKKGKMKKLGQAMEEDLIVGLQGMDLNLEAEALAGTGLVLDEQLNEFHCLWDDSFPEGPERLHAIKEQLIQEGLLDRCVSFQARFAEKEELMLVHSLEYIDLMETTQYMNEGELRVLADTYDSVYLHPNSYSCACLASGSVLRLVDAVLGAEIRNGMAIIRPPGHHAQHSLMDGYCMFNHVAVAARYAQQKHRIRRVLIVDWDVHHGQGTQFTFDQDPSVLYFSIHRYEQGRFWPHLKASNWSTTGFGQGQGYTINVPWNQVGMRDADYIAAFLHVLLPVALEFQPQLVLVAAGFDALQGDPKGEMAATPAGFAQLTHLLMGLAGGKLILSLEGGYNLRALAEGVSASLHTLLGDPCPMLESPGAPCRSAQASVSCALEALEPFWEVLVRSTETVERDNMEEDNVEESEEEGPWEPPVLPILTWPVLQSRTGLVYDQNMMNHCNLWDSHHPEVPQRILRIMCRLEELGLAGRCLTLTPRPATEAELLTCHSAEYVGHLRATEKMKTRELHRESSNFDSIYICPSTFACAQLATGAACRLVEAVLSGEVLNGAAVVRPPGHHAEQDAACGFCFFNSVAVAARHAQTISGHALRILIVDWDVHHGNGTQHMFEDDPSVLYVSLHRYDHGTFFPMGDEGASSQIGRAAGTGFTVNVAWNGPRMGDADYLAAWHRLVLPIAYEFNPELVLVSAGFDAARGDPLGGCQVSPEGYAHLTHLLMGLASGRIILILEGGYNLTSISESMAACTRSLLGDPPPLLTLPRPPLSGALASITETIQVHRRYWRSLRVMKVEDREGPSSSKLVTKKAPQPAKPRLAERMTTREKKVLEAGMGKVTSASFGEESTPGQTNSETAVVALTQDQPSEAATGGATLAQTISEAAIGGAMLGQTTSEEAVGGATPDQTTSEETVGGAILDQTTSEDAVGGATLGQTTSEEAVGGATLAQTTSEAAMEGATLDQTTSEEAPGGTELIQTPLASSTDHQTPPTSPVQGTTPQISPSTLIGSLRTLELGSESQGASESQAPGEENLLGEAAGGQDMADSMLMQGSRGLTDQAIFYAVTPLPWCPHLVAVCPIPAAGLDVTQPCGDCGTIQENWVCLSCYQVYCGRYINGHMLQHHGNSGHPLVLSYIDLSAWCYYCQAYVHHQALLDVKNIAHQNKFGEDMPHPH
T7 sequence (Q96SW2 whole entry): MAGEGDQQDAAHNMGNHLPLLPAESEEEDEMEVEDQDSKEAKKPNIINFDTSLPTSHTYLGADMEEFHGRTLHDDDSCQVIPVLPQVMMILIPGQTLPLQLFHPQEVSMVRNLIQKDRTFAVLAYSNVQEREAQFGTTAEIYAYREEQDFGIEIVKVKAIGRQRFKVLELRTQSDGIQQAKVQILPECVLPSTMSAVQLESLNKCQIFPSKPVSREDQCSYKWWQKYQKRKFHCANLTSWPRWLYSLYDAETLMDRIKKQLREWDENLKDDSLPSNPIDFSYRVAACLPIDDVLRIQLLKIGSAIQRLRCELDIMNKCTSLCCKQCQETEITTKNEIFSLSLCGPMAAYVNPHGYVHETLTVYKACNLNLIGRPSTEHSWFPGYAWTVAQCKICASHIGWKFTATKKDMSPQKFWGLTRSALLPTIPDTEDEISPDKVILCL
T5 sequence (Q86U86 whole entry): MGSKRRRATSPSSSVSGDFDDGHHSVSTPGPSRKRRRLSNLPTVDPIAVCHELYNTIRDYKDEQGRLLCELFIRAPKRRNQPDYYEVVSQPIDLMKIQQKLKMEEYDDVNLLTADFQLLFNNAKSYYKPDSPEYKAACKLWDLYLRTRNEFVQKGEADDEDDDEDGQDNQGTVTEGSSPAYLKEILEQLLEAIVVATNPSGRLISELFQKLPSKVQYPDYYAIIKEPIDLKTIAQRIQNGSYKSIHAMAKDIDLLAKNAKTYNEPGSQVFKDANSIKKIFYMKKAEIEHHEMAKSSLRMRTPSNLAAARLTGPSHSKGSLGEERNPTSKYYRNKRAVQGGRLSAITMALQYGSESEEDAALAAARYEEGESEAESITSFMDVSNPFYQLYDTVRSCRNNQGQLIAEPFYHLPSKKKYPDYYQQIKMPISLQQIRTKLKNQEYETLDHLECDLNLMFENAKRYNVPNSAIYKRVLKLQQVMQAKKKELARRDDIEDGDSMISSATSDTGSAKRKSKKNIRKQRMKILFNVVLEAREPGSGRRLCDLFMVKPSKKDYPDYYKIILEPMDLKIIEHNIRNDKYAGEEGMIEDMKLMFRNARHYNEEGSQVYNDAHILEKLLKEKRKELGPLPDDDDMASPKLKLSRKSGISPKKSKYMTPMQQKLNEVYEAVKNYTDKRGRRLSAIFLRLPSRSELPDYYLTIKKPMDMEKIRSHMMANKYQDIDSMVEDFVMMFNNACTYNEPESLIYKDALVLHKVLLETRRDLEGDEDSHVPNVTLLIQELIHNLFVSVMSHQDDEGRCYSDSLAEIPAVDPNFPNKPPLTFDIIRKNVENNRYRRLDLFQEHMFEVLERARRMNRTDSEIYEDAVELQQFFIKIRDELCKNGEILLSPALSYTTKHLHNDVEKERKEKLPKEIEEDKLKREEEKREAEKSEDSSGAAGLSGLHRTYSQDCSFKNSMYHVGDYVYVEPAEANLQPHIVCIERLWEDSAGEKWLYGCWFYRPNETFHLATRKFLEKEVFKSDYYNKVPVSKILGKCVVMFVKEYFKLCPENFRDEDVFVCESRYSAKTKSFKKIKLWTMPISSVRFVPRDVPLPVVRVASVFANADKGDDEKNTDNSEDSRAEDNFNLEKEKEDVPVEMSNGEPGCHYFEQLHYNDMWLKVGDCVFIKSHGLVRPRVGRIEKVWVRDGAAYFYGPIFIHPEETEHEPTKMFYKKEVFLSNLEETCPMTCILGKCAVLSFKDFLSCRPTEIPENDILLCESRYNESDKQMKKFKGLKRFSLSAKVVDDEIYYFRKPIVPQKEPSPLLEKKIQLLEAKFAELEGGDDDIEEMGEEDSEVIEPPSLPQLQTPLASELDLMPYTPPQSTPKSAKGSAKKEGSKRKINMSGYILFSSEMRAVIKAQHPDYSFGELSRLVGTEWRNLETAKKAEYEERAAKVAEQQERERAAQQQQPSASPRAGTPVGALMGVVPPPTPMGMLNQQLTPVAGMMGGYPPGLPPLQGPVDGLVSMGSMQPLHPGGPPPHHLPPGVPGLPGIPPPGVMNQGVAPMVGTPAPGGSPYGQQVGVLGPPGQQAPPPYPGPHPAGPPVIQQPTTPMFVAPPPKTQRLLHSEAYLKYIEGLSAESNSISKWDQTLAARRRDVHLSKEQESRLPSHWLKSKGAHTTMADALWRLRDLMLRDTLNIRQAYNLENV
T5 sequence (P40337 whole entry): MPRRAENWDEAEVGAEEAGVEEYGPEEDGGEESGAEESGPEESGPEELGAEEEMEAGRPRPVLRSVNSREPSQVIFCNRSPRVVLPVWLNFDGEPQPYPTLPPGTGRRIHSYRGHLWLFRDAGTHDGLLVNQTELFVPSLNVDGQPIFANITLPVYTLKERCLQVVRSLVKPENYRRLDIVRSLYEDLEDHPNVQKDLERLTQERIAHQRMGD
Chain of Protein deacetylase HDAC6 (Q9UBN7 whole entry): as the sequence (Q9UBN7 whole entry) above
Chain of von Hippel-Lindau disease tumor suppressor/Polycomb protein EED (O75530 whole entry): as the sequence (O75530 whole entry) above
Chain of von Hippel-Lindau disease tumor suppressor/Polycomb protein EED (P40337 whole entry): as the sequence (P40337 whole entry) above

Structure (SMILES): Cc1ncsc1-c1ccc(CNC(=O)[C@@H]2C[C@@H](O)CN2C(=O)[C@@H](NC(=O)CCCNC(=O)c2ccc(-c3cnc(NCc4ccco4)n4cnnc34)cc2)C(C)(C)C)cc1
- EC50 [1]: 590 nM
- EC50 [2]: 300 nM
- EC50 [3]: 610 nM
- IC50 (Polycomb protein EED [4]): 247 nM

Structure (SMILES): Cc1cc(C)c(CNC(=O)c2cc(-c3ccc(N4CCN(C(C)C)CC4)nc3)cc3c2cnn3C(C)C)c(=O)[nH]1
- IC50 [5]: > 2500 nM

Structure (SMILES): CC(=O)N[C@H](C(=O)N1C[C@H](O)C[C@H]1C(=O)NCc1ccc(-c2scnc2C)cc1)C(C)(C)SCCCCCNC(=O)C[C@@H]1N=C(c2ccc(Cl)cc2)c2c(sc(C)c2C)-n2c(C)nnc21
- Kd [6]: 75 nM
- Kd [7]: 111 nM
- Kd [8]: 94 nM
- Kd [9]: 44 nM
- Kd [10]: 39 nM
- Kd [11]: 35 nM

Structure (SMILES): Cc1ncsc1-c1ccc(CNC(=O)[C@H]2C[C@H](O)CN2C(=O)[C@H](NC(=O)C2(F)CC2)C(C)(C)C)c(OCCOc2ccc(CN3CCN(c4cc(-c5ccccc5O)nnc4N)CC3)cc2)c1
- IC50 [12]: 560 nM
- IC50 [13]: 770 nM
- EC50 [14]: 32 nM
- EC50 [15]: 15.6 nM
- EC50 [16]: 6 nM
- EC50 [17]: 3.3 nM
- IC50 (SK-MEL-5): 77 nM
- IC50 (MV4-11): 28 nM
- IC50 [18]: 68 nM
- IC50 [19]: 504 nM
- EC50 [20]: 11 nM

Structure (SMILES): Cc1nc(CCC(=O)NCCOc2ccc(OCC(=O)N[C@@H](C(=O)N3C[C@H](O)C[C@H]3C(=O)NCc3ccc(-c4scnc4C)cc3)C(C)(C)C)cc2)ccc1-c1cnc(NCc2c(F)ccc3c2CCO3)n2cnnc12
- GI50 (KARPAS-422): 45 nM
- pIC50 [21]: 8.17
- Kd (Polycomb protein EED [22]): 0.955 nM

Structure (SMILES): Cc1ncsc1-c1ccc([C@H](C)NC(=O)[C@@H]2C[C@@H](O)CN2C(=O)C(NC(=O)COCCCOCCNC(=O)C[C@@H]2N=C(c3ccc(Cl)cc3)c3c(sc(C)c3C)-n3c(C)nnc32)C(C)(C)C)cc1 (single isomer, unassigned)
- Kd [7]: 34 nM
- Kd [8]: 4.7 nM
- EC50 [23]: < 5 nM

Structure (SMILES): COc1ccc(/C=N/NC(=O)CCCCCCCC(=O)NO)cc1
- IC50 [24]: 11.1 nM
- IC50 (Histone deacetylase 1): 2.28 nM
- IC50 (Histone deacetylase 2): 3.12 nM
- IC50 [25]: 35.8 nM
- IC50 (Histone deacetylase 3): 1.82 nM
- IC50 (Histone deacetylase 8): 60.3 nM

Structure (SMILES): O=C1CCC(N2C(=O)c3cccc(NCCOCCOCCn4cc(CCCCN(Cc5ccc(C(=O)NO)cc5)C(=O)Nc5ccccc5)nn4)c3C2=O)C(=O)N1 (stereo unspecified)
- GI50 (MM1.S): 1210 nM
- EC50 [26]: 3.8 nM

Structure (SMILES): CCCCN(Cc1ccc(C(=O)NO)cc1)C(=O)Nc1ccc(NC(=O)CCCc2cn(CCOCCNc3cccc4c3C(=O)N(C3CCC(=O)NC3=O)C4=O)nn2)cc1 (stereo unspecified)
- EC50 [27]: 3.2 nM

Structure (SMILES): CCCOc1cccc(Oc2cc3c(cc2NS(=O)(=O)c2ccc(OC)c(OC)c2)n(C)c(=O)n3C)c1
- IC50 [28]: 43 nM

Structure (SMILES): CNC(=O)CCc1ccc(-c2cnc(NCc3c(F)ccc4c3CCO4)n3cnnc23)c(C)n1
- pIC50 [21]: 8.43
- Kd (Polycomb protein EED [22]): 0.245 nM

Structure (SMILES): Cc1cc(C)c(CNC(=O)c2cc(-c3ccc(N4CCN(CCNC(=O)CC56CC7CC(CC(C7)C5)C6)CC4)nc3)cc3c2cnn3C(C)C)c(=O)[nH]1
- IC50 [29]: 120 nM

Structure (SMILES): CCCOc1cccc(Oc2cc3c(cc2NS(=O)(=O)c2cccc(C(=O)NCCOCCOCCOCC(=O)N[C@H](C(=O)N4C[C@H](O)C[C@H]4C(=O)NCc4ccc(-c5scnc5C)cc4)C(C)(C)C)c2)n(C)c(=O)n3C)c1
- Activity [30]: 72%
- Activity [31]: 72%

Structure (SMILES): Cc1nc(CCC(=O)NCCCCC(=O)N[C@@H](C(=O)N2C[C@H](O)C[C@H]2C(=O)NCc2ccc(-c3scnc3C)cc2)C(C)(C)C)ccc1-c1cnc(NCc2c(F)ccc3c2CCO3)n2cnnc12
- GI50 (KARPAS-422): 57 nM
- pIC50 [21]: 8.11
- Kd (Polycomb protein EED [22]): 0.537 nM
